Test results reported in PubChem BioAssay (NCI).
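Exposure lasted 48 hours, with cells grown in 96-well plates and compounds tested at five concentrations. GI50 = concentration required for 50% inhibition of growth. TGI marks complete inhibition of growth.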

Tests used:
Test in all cases: growth of human tumour cells (NCI), 48 h
[1] = system: NCI-H226 lung
[2] = system: HS 578T breast
[3] = system: CAKI-1 renal
[4] = system: SK-OV-3 ovarian
[5] = system: BT-549 breast
[6] = system: NCI-H522 lung
[7] = system: OVCAR-8 ovarian
[8] = system: SK-MEL-28 melanoma
[9] = system: LOX IMVI melanoma
[10] = system: COLO 205 colon
[11] = system: NCI/ADR-RES ovarian
[12] = system: A498 renal
[13] = system: SK-MEL-5 melanoma
[14] = system: HCT-15 colon
[15] = system: SK-MEL-2 melanoma
[16] = system: NCI-H460 lung
[17] = system: SW-620 colon
[18] = system: SNB-75 CNS
[19] = system: K-562 leukemia
[20] = system: HCT-116 colon
[21] = system: HOP-92 NSCLC
[22] = system: OVCAR-5 ovarian
[23] = system: SF-268 CNS
[24] = system: HCC-2998 colon
[25] = system: UACC-257 melanoma
[26] = system: M14 melanoma
[27] = system: U251 CNS
[28] = system: A549 NSCLC
[29] = system: HT29 colon
[30] = system: SF-539 CNS
[31] = system: MDA-MB-231 breast
[32] = system: OVCAR-4 ovarian
[33] = system: PC-3 prostate
[34] = system: RPMI-8226 leukemia
[35] = system: MCF7 breast
[36] = system: SN12C renal
[37] = system: MOLT-4 leukemia
[38] = system: MALME-3M melanoma
[39] = system: HL-60(TB) leukemia
[40] = system: UACC-62 melanoma
[41] = system: KM12 colon
[42] = system: SF-295 CNS
[43] = system: ACHN renal
[44] = system: IGROV1 ovarian
[45] = system: DU-145 prostate
[46] = system: SNB-19 CNS
[47] = system: NCI-H23 lung
[48] = system: 786-0 renal
[49] = system: OVCAR-3 ovarian
[50] = system: SR leukemia
[51] = system: HOP-62 NSCLC
[52] = system: CCRF-CEM leukemia
[53] = system: UO-31 renal
[54] = system: TK-10 renal

## N=C(N)c1ccc(-c2ccc(-c3cc(Cl)cc(Cl)c3)s2)s1
[1]
  GI50: 30800 nM
  TGI: 65400 nM
[2]
  GI50: 2150 nM
  TGI: 5000 nM
[3]
  GI50: 1720 nM
  TGI: 3350 nM
[4]
  GI50: 3620 nM
  TGI: 17100 nM
[5]
  GI50: 4370 nM
  TGI: > 100000 nM

## COc1ccc(-c2cnoc2-c2cc(OC)c3c(c2)OCCO3)cc1
[6]
  GI50: < 14.1 nM
  TGI: 84.2 nM
[7]
  GI50: 52.4 nM
  TGI: > 59100 nM
[8]
  GI50: 10100 nM
  TGI: > 100000 nM
[9]
  GI50: 63.2 nM
  TGI: 22500 nM
[10]
  GI50: 23.1 nM
  TGI: 80.6 nM
[11]
  GI50: < 13.2 nM
  TGI: 49500 nM
[12]
  GI50: 14.9 nM
  TGI: 164 nM
[13]
  GI50: 22.2 nM
  TGI: 592 nM
[14]
  GI50: 25.8 nM
  TGI: 28100 nM
[15]
  GI50: 27.9 nM
  TGI: 16200 nM
[16]
  GI50: 32.7 nM
  TGI: 12800 nM
[17]
  GI50: 30.2 nM
  TGI: > 100000 nM
[1]
  GI50: 738 nM
  TGI: > 94400 nM
[18]
  GI50: 19.5 nM
  TGI: 34400 nM
[19]
  GI50: < 11.5 nM
  TGI: > 100000 nM
[20]
  GI50: 39.6 nM
  TGI: > 37000 nM
[21]
  GI50: 281 nM
  TGI: 41700 nM
[22]
  GI50: 61.7 nM
  TGI: > 86700 nM
[23]
  GI50: 127 nM
  TGI: > 100000 nM
[24]
  GI50: 83 nM
  TGI: 22000 nM
[25]
  GI50: 11500 nM
  TGI: > 100000 nM
[26]
  GI50: 27.4 nM
  TGI: > 46800 nM
[27]
  GI50: 52.1 nM
  TGI: > 100000 nM
[28]
  GI50: 48 nM
  TGI: > 100000 nM
[2]
  GI50: 28.3 nM
  TGI: 11700 nM
[29]
  GI50: 33.1 nM
  TGI: 20800 nM
[30]
  GI50: 23.5 nM
  TGI: 90.7 nM
[31]
  GI50: 50.9 nM
[32]
  GI50: 14000 nM
  TGI: > 100000 nM
[33]
  GI50: 37.7 nM
  TGI: > 100000 nM
[34]
  GI50: 47.7 nM
  TGI: 33000 nM
[35]
  GI50: 30.4 nM
  TGI: > 100000 nM
[36]
  GI50: 402 nM
  TGI: > 94300 nM
[3]
  GI50: 40.9 nM
  TGI: > 100000 nM
[37]
  GI50: 63.8 nM
  TGI: > 100000 nM
[38]
  GI50: 39800 nM
  TGI: > 100000 nM
[39]
  GI50: 28.9 nM
  TGI: 975 nM
[40]
  GI50: < 15 nM
  TGI: > 100000 nM
[41]
  GI50: < 16.2 nM
  TGI: 16000 nM
[42]
  GI50: < 10.8 nM
  TGI: 22300 nM
[43]
  GI50: 108 nM
  TGI: > 58900 nM
[4]
  GI50: 31.2 nM
  TGI: 2800 nM
[44]
  GI50: 92.4 nM
  TGI: > 100000 nM
[45]
  GI50: 45.6 nM
  TGI: > 46900 nM
[46]
  GI50: 52.5 nM
  TGI: > 100000 nM
[47]
  GI50: 59.9 nM
  TGI: > 100000 nM
[48]
  GI50: 62.9 nM
  TGI: > 56500 nM
[49]
  GI50: < 17.2 nM
  TGI: 1550 nM
[50]
  GI50: 22.6 nM
  TGI: 6290 nM
[5]
  GI50: 73 nM
  TGI: 27800 nM
[51]
  GI50: 31.9 nM
  TGI: 56600 nM
[52]
  GI50: 37.9 nM
  TGI: > 100000 nM
[53]
  GI50: 283 nM
  TGI: > 100000 nM
[54]
  GI50: 16700 nM
  TGI: > 100000 nM
